Laboratory results: publication PMC12730333 (Biology, 2025)
Read-outs that look alike come from different tables or passages of the source. Marks after values point to notes of the source that are not given here.

Assays:
[1] = tested on: promastigote forms of Leishmania amazonensis PH8 strain; experiment: ROS production by flow cytometry, H2DCFDA, promastigotes; format: cell-based; conditions: exposed to IC50 (AA 10 µM), 24 h
[2] = tested on: ex vivo amastigote forms of L. amazonensis LTB0016 strain; experiment: ROS production by flow cytometry, H2DCFDA, ex vivo amastigotes; format: cell-based, Leishmania amazonensis; conditions: exposed to IC50 (AA 10 µM), 24 h; for VIROS, Ex Vivo Amastigotes High Population / VIROS, Ex Vivo Amastigotes Low Population: MT/MC
[3] = Cytotoxicity assay (Alamar Blue, 24 h) on L929 fibroblasts; format: cell-based, murine; conditions: mouse, L929 fibroblasts
Method: (§1) HepG2 cells (human hepatocellular carcinoma), VERO cells (African green monkey kidney), and J774.G8 macrophages (murine reticulosarcoma) were maintained in DMEM medium, supplemented with 10% FBS, 1% Pen/Str at 37 °C and 5% CO2 [70, 71]. For the cultivation of L929 fibroblasts (murine fibrosarcoma), RPMI 1640 medium without phenol red, supplemented with 2 mM L-glutamine, 10% FBS, and 1% Pen/Str, was used and maintained under the same conditions of temperature and CO2 as above.
(§2) J774.G8, VERO (10^5 cells/well), HepG2, L929 (0.5 × 10^5 cells/well) cells, and MPMs (3 × 10^5 cells/well) were centrifuged, resuspended in medium, plated in 96-well microplates, and incubated for 24 h under cultivation conditions. Subsequently, they were exposed to different concentrations of the compounds, serially diluted in medium to a final volume of 100 µL/well, and incubated for 24 h at 37 °C and 5% CO2. Cell viability was then assessed using the AB, and data were acquired by spectrophotometry. […] Untreated cells were used as negative controls, and cells exposed to the reference compound (MT) were used as positive controls. The Selectivity Index (SI) was calculated using the ratio SI = CC50 (mammalian cells)/IC50 (promastigote or amastigote forms of L. amazonensis).

[4] = tested on: Leishmania amazonensis promastigote forms (PH8 strain); conditions: exposed to IC50, 24–168 h
Method: (§4) Promastigotes were kept at 26 °C, whereas amastigotes were kept at 32 °C. After 24 h, parasite viability was assessed using the AB colorimetric method, and the data were analyzed using a spectrophotometer as previously described [74]. […] Wells with medium and without parasites were used as blanks, and wells with medium and untreated parasites were used as negative controls. MT was employed as the reference drug.

[5] = tested on: ex vivo amastigote forms of L. amazonensis LTB0016 strain; experiment: Leishmanicidal activity assay on ex vivo amastigotes (Alamar Blue, 24 h); conditions: for IC50: 24 h, read-out: IC50 Ama.; for efficacy compared with MT: concentrations below 0.28 μM; for inhibitory action compared with MT: doses < 0.10 μM
Description: Ex vivo amastigote forms of L. amazonensis (MHOM/BR/77/LTB0016) were harvested and purified from lesions of male BALB/c mice. For this, a suspension containing 10^6 amastigotes was inoculated subcutaneously into the intraplantar region of the hind paw. After 30 days, the animals were euthanized, and their paws were excised and rinsed in 70% ethanol. The epidermis and necrotic tissues were mechanically dissociated. Subsequently, the paws were placed in Petri dishes containing RPMI 1640 medium supplemented with 5% FBS and 2% Pen/Str. […] The supernatant was transferred to another tube, homogenized with a syringe, and centrifuged at 764× g for another 15 min. The supernatant was discarded, and the pellet was resuspended in RPMI 1640 medium [69].
as §4

HepG2 cells = experiment: Cytotoxicity assay (Alamar Blue, 24 h) on HepG2 cells; format: cell-based, human; conditions: 0.5 × 10^5 cells/well
Method: as §1, §2

[6] = as above; format: cell-based, human; conditions: human, HepG2 cells, 0.5 × 10^5 cells/well
Method: as §1, §2

[7] = Cytotoxicity assay (Alamar Blue, 24 h) on murine peritoneal macrophages; format: cell-based, Swiss Webster mice; conditions: male, Swiss Webster, mouse, murine peritoneal macrophages (MPMs, primary cells), 3 × 10^5 cells/well
Method: (§3) Murine peritoneal macrophages—MPMs (primary cells)—were isolated from male Swiss Webster mice stimulated with 1 mL of 3% Brewer’s thioglycollate medium, administered intraperitoneally. After 96 h, the animals were euthanized, and the MPMs were collected by peritoneal lavage with approximately 10 mL of RPMI 1640 medium. The cell suspension was centrifuged at 382× g for 10 min, and the pellet was resuspended in medium supplemented with 5% FBS, 1% Pen/Str, and 2 mM L-glutamine. All cell cultures were maintained at 37 °C and 5% CO2 [73]. For the experiments, all cell types were cultured until confluency.
as §2

[8] = tested on: ex vivo amastigote forms of L. amazonensis LTB0016 strain; experiment: Mitochondrial membrane potential (ΔΨm) by flow cytometry, TMRE, ex vivo amastigotes; conditions: for TMRE MFI, ex vivo Amastigotes High Population / TMRE MFI, ex vivo Amastigotes Low Population / VIΔΨm, ex vivo Amastigotes High Population / VIΔΨm, ex vivo Amastigotes Low Population: exposed to IC50, 24 h; for VIΔΨm, ex vivo Amastigotes High Population / VIΔΨm, ex vivo Amastigotes Low Population: (MT − MC)/MC
[9] = Cytotoxicity assay (Alamar Blue, 24 h) on VERO cells; format: cell-based, African green monkey; conditions: African green monkey, VERO cells, 10^5 cells/well
Method: as §1, §2

[10] = Cytotoxicity assay (Alamar Blue, 24 h) on J774.G8 macrophages; format: cell-based, murine; conditions: mouse, J774.G8 macrophages, 10^5 cells/well, read-out: CC50 J744.G8
Method: as §1, §2

[11] = tested on: promastigote forms of Leishmania amazonensis PH8 strain; experiment: Mitochondrial membrane potential (ΔΨm) by flow cytometry, TMRE, promastigotes; conditions: exposed to IC50, 24 h; for VIΔΨm, Promastigotes High Population / VIΔΨm, Promastigotes Low Population: (MT − MC)/MC; for VIΔΨm, Promastigotes Low Population: negative = depolarization
[12] = tested on: promastigote forms of Leishmania amazonensis PH8 strain; experiment: Leishmanicidal activity assay on promastigotes (Alamar Blue, 24 h); format: cell-based; conditions: 10^6 parasites/mL
Method: Promastigote forms of Leishmania amazonensis (IFLA/BR/1967/PH8) were obtained from the Instituto Oswaldo Cruz Leishmania collection (CLIOC/Fiocruz). These cultures were maintained in Schneider’s Insect Medium, supplemented with 20% FBS and 1 μL/mL of Pen/Str at 26 °C. In vitro passages were conducted weekly, with promastigotes harvested during the late logarithmic phase for experiments on the 5th day of growth (Figure S1A).
MT was employed as the reference drug.

L929 cells = experiment: Cytotoxicity assay (Alamar Blue, 24 h) on L929 fibroblasts; format: cell-based, murine; conditions: 0.5 × 10^5 cells/well
Method: as §1, §2

[13] = tested on: murine peritoneal macrophages—MPMs; experiment: Cytotoxicity assay (Alamar Blue, 24 h) on murine peritoneal macrophages; format: cell-based, Swiss Webster mice; conditions: 3 × 10^5 cells/well
Method: as §3, §2

VERO cells = experiment: Cytotoxicity assay (Alamar Blue, 24 h) on VERO cells; format: cell-based, African green monkey; conditions: 10^5 cells/well
Method: as §1, §2

J774.G8 cells = experiment: Cytotoxicity assay (Alamar Blue, 24 h) on J774.G8 macrophages; format: cell-based, murine; conditions: 10^5 cells/well, read-out: CC50 J744.G8
Method: as §1, §2

| SMILES | H2DCFDA MFI, Promastigotes High Population [1] | H2DCFDA MFI, Promastigotes Low Population [1] | H2DCFDA MFI, Ex Vivo Amastigotes High Population [2] | H2DCFDA MFI, Ex Vivo Amastigotes Low Population [2] | VIROS, Ex Vivo Amastigotes High Population [2] | VIROS, Ex Vivo Amastigotes Low Population [2] | time from which proliferation was significantly (p < 0.05) reduced compared to MT [4] [h] | efficacy compared with MT ([5]; ex vivo amastigotes) | inhibitory action compared with MT ([5]; ex vivo amastigotes) | CC50 (HepG2 cells) [µM] | TMRE MFI, ex vivo Amastigotes High Population [8] | TMRE MFI, ex vivo Amastigotes Low Population [8] | VIΔΨm, ex vivo Amastigotes High Population [8] | VIΔΨm, ex vivo Amastigotes Low Population [8] | TMRE MFI, Promastigotes High Population [11] | TMRE MFI, Promastigotes Low Population [11] | VIΔΨm, Promastigotes High Population [11] | VIΔΨm, Promastigotes Low Population [11] | IC50 [12] [µM] | further results |
| --- | --- | --- | --- | --- | --- | --- | --- | --- | --- | --- | --- | --- | --- | --- | --- | --- | --- | --- | --- | --- |
| CCCCCC[C@H]1C(=O)O[C@H](C)[C@H](NC(=O)c2cccc(NC=O)c2O)C(=O)O[C@@H](C)[C@@H]1OC(=O)CC(C)C [AA, Antimycin A, reference compound] | 890,705.80 | 19,775.40 | 143,227.25 | 3011.23 | 0.60 ± 0.53 | 1.14 ± 0.38 | – | – | – | – | – | – | – | – | – | – | – | – | – | VIROS, Promastigotes Low Population ([1]; MT/MC): 0.52 ± 0.13; VIROS, Promastigotes High Population ([1]; MT/MC (fold of control)): 2.07 ± 0.23 |
| CCNc1cc2[s+]c3cc(NCC)c(C)cc3nc2cc1C [NMB, new methylene blue] | 1,512,521.00 * | 31,489.80 | 131,669.43 | 2940.57 | 0.84 ± 0.51 | 1.62 ± 0.90 | ≥ 72 | surpassed the efficacy of MT | more inhibitory action | 71.6 ± 3.15 | 277,557.80 * | 3770.37 | −0.43 ± 0.20 | −0.27 ± 0.06 | 65,590.87 | 4095.05 | 0.11 ± 0.08 | −0.14 ± 0.20 | 5.42 | CC50 at 24 h ([3]; 0.5 × 10^5 cells/well): 280.2 ± 2.19 µM; viability at 24 h ([3]; lower concentrations (37–100 μM), read-out: viability of L929 cells): > 50%; IC50 ([5]; Leishmania amazonensis): 2.66 ± 0.95 µM; CC50 at 24 h [6]: > 70 µM; CC50 at 24 h [7]: 31.3 ± 5.72 µM; loss of potential (ΔΨm) in HP ex vivo amastigotes / mitochondrial depolarization ([8]; IC50, 24 h): up to 61%; CC50 at 24 h [9]: 44.7 ± 3.4 µM; CC50 at 24 h [10]: 68.5 ± 2.12 µM; IC50 ([12]; Leishmania amazonensis): < 5.5 µM |
| CCNc1cc2[s+]c3cc(NCC)c(C)cc3nc2cc1C.F[P-](F)(F)(F)(F)F.F[P-](F)(F)(F)(F)F.F[P-](F)(F)(F)(F)F.F[P-](F)(F)(F)(F)F.N#[O+].[Ru+2].c1cnc2c(c1)ccc1cccnc12.c1cnc2c(c1)ccc1cccnc12 [NMB-P, new methylene blue P] | 2,325,902.50 ** | 34,607.80 | 140,291.57 | 3063.17 | 0.90 ± 0.45 | 1.27 ± 0.45 | ≥ 96 | surpassed the efficacy of MT | more inhibitory action | 35.1 ± 2.08 | 642,051.43 | 7215.47 | 0.39 ± 0.13 | 0.21 ± 0.04 | 86,029.23 | 3359.03 * | 0.49 ± 0.36 | −0.28 ± 0.03 | 2.84 | CC50 (L929 cells): 150 ± 12 µM; IC50 ([5]; ex vivo amastigotes, 10^6 parasites/mL): 0.46 ± 0.34 µM; CC50 [13]: 71.6 ± 1.85 µM; CC50 (VERO cells): 240 ± 27.6 µM; CC50 (J774.G8 cells): 69.8 ± 10.4 µM |
